Data reported in patent US4885297A, “Thiazolopyridine compounds, processes for the preparation thereof and pharmaceutical composition comprising the same” (Fujisawa Pharmaceutical Co., Ltd., priority 1987, dated 1989).
Where two headings read alike, the source gives them in different places.

What was measured:
[1] = tested on: Platelet aggregation (rat blood); assay: Platelet aggregation ex vivo (collagen-induced, after oral administration); format: in vivo, Male Sprague-Dawley rats; conditions: one hour after administration, collagen 5.0 μg/ml
Experimental: Male Sprague-Dawley rats weighing about 250 g were used after overnight fasting. One hour after oral administration of test compound or vehicle of test compound (control), blood was collected into a tube containing 0.1 vol. of 3.8% sodium citrate. To the 0.45 ml of blood, 0.05 ml of collagen (final concentration 5.0 μg/ml) was added and then incubated for 5 min. at 37° C. under shaking.
The reaction was terminated by addition of 1 ml of 10 mM phosphate buffered saline (pH 7.4) containing 11.5 mM EDTA and 1% formalin. The reaction mixture was centrifuged at 70 xg for 5 min. and platelet count of upper phase was measured by Technicon Auto Analizer.
Platelet aggregation was calculated according to the following formula: [formula] A; Platelet count after addition of vehicle of collagen B; Platelet count after addition of collagen
Inhibition of the test compound was calculated according to the following formula; [formula] C; Platelet aggregation (%) of control D; Platelet aggregation (%) of Test compound

[2] = tested on: Platelet aggregation (rabbit platelet rich plasma); assay: Platelet aggregation in vitro (rabbit platelet rich plasma, ADP- or collagen-induced); format: cell-based; conditions: Oryctolagus cuniculus, rabbit PRP, pH 7.4, 37° C.
Experimental: Platelet rich plasma (PRP) which contains 6-7×10^8 platelets/ml was prepared from rabbit blood. To the 200 μl of PRP, 5 μl of calcium chloride (1 mM) and 50 μl of 25 mM Tris-acetate solution (pH 7.4) containing 120 mM NaCl or test compound were added successively, and then stirred for 2 min. at 37° C. To the solution, 5 μl of adenosine diphosphate (ADP) (2.5 μM) or collagen (2.5 μg/ml) was added to an aggregation inducer. Aggregation was measured by using an aggregometer (NKK HEMATRACER 1). Activities of inhibitors (test compounds) were expressed as ID50 values i.e. Doses required to inhibit the platelet aggregation responses by 50%.

## CN1CCN(C(=O)Cn2c(=O)sc3ncc(Cl)cc32)CC1 [Example 2, 6-chloro-2-oxo-1-[(4-methyl-1-piperazinyl)carbonylmethyl]-1,2-dihydrothiazolo[5,4-b]pyridine]
[1]; 10 mg/kg oral
  Inhibition (%): 8%
[1]; 32 mg/kg oral
  Inhibition (%): 103%
[1]; 100 mg/kg oral
  Inhibition (%): 121%
[2]; inducer ADP (2.5 μM), read-out: ID50 ADP
  IC50: 55 µM
[2]; inducer collagen (2.5 μg/ml), read-out: ID50 Collagen
  IC50: 37 µM
